According to PubChem BioAssay (NCI):
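Method: 48-hour compound exposure of cells in 96-well plates, five concentrations, linear interpolation of endpoints. GI50 marks 50% less growth. At the TGI there is no net growth.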

How the values were obtained:
Assay in all cases: NCI anticancer screen, dose series, 48 h
HT29 colon = system: HT29 colon
SK-OV-3 ovarian = system: SK-OV-3 ovarian
PC-3 prostate = system: PC-3 prostate
HCC-2998 colon = system: HCC-2998 colon
MALME-3M melanoma = system: MALME-3M melanoma
HCT-116 colon = system: HCT-116 colon
OVCAR-8 ovarian = system: OVCAR-8 ovarian
BT-549 breast = system: BT-549 breast

Row | SMILES | GI50 (HT29 colon) | TGI (HT29 colon) | GI50 (SK-OV-3 ovarian) | TGI (SK-OV-3 ovarian) | GI50 (PC-3 prostate) | TGI (PC-3 prostate) | GI50 (HCC-2998 colon) | TGI (HCC-2998 colon) | GI50 (MALME-3M melanoma) | TGI (MALME-3M melanoma) | GI50 (HCT-116 colon) | TGI (HCT-116 colon) | GI50 (OVCAR-8 ovarian) | TGI (OVCAR-8 ovarian) | GI50 (BT-549 breast) | TGI (BT-549 breast)
1 | CS(=O)(=O)N1CCC(Nc2ncc(C(=O)c3c(F)cccc3F)c(N)n2)CC1 | 10.1 µM | > 25 µM | > 25 µM | > 25 µM | 4.8 µM | > 25 µM | 12.9 µM | > 25 µM | 10.6 µM | > 25 µM | 6 µM | > 25 µM | 9.7 µM | > 25 µM | > 20.7 µM | > 25 µM
2 | Cc1ccc(C2=NN(c3ccc(S(=O)(=O)NC(=O)NCc4ccccc4)cc3)C(c3ccc(N(C)C)cc3)C2)c(C)c1 (stereo not given) | 4.53 µM | 19.1 µM | 8.43 µM | > 100 µM | 3.33 µM | 42 µM | 2.45 µM | 5.65 µM | 2.9 µM | 9.14 µM | 4 µM | 14.9 µM | 3.81 µM | > 100 µM | 3.94 µM | 19.9 µM
3 | CCOc1cc(Cl)c(C(C)NC(=O)c2cccc(OC)c2)cc1OCC (stereo not given) | 4.23 µM | 44.6 µM | 15.6 µM | > 100 µM | 15.1 µM | > 100 µM | 28.8 µM | > 100 µM | 9.42 µM | > 100 µM | 4.48 µM | > 100 µM | 25.7 µM | > 100 µM | 13.4 µM | > 100 µM
4 | CSC1=CC(=O)c2ccccc2C1=O | 26.3 µM | 65.2 µM | 18.2 µM | 32.1 µM | 2.54 µM | 12.5 µM | 15.3 µM | 29.9 µM | 1.92 µM | 3.54 µM | 1.52 µM | 2.92 µM | 3.58 µM | 15 µM | 11.6 µM | 23.8 µM
5 | CC(C)c1cnc(-c2cc(Cl)ccc2F)cc1Nc1ccncc1C(=O)NC(CO)CO | 14.6 µM | 33.7 µM | 19.8 µM | 55.5 µM | 13.8 µM | 32.6 µM | 17.6 µM | 33.2 µM | 17.2 µM | 34.4 µM | 12.5 µM | 28.5 µM | 14.6 µM | 49.8 µM | 14.8 µM | 31.9 µM
6 | CCOC(=O)C#Cc1cccc(C#CC(=O)OCC)c1 | – | 9.07 µM | – | 19.5 µM | – | 14.9 µM | – | 2.1 µM | – | 12.1 µM | – | 7.1 µM | – | 26 µM | – | 5.1 µM
7 | Nc1nc2ccc(CNc3ccc(C(=O)NC(CC(=O)O)C(=O)O)cc3)cc2c(=O)[nH]1 (stereo not given) | 0.67 µM | > 100 µM | > 29.1 µM | > 100 µM | 0.655 µM | > 100 µM | 7.39 µM | > 100 µM | > 33.3 µM | > 100 µM | 0.478 µM | > 100 µM | 1.16 µM | > 100 µM | 4.02 µM | > 31 µM
8 | C=C(C(=O)c1ccccc1)C(NC(C)(C)C)c1ccccc1 (stereo not given) | 1 µM | 3.13 µM | 3.76 µM | 20.1 µM | 3.26 µM | 13 µM | 1.81 µM | 3.38 µM | 1.91 µM | 4.33 µM | 1.33 µM | 2.92 µM | 3.02 µM | 10.8 µM | 2.13 µM | 4.6 µM
